# Results from PMC8234864, “Early Effects of the Soluble Amyloid β25-35 Peptide in Rat Cortical Neurons: Modulation of Signal Transduction Mediated by Adenosine and Group I Metabotropic Glutamate Receptors” (International Journal of Molecular Sciences, 2021).
# “Also recorded” adds a separate entry of the source.
# How the values were obtained:
# [1] = system: rat cortical neurons exposed to Aβ25-35; test: Effect of receptor ligands on Aβ25-35 induced toxicity (MTT); format: cell-based; conditions: ligand 100 µM added 30 min before Aβ25-35 (25 µM, 24 h)
# Procedure: (§1) Aβ25-35 and Aβ1-42 were water-soluble peptides, however, while Aβ25-35, the functional domain of Aβ required for both neurotrophic and neurotoxic effects, was directly added to neuronal cultures after its solubilisation, Aβ1-42 was solved in water and maintained for 24 h at 37 °C before its addition to promote its aggregation. To test the effect of mGluR ligands on cell death induced by Aβ in neuronal cultures, these drugs were added 30 min before the addition of Aβ25-35 and maintained during Aβ exposure. Unless otherwise indicated, all chemicals were dissolved in water.
# (§2) Cell viability was determined on 96-well plates using an in vitro toxicology assay kit based on a mitochondrial-dependent reaction that transforms 3-[4,5-dimetylthiazol-2-yl]-2,5-diphenyltetrazolium bromide (MTT) into formazan crystals. Briefly, at the end of treatments, cells were incubated in culture medium with MTT solution (5 mg/mL) at 37 °C for 3 h. After incubation, MTT solubilization solution (10% Triton X-100 plus 0.1 M HCl in isopropanol anhydrous) was added into the wells to dissolve formazan crystals and the absorbance of each well was measured at 570 nm and 690 nm, according to the manufacturer’s instructions.
# [2] = system: Group I mGluR/PLC signalling pathway; test: Phospholipase C activity (IP3 accumulation), basal and DHPG-stimulated; format: cell-based, rat; conditions: added 10 min before DHPG, control cells
# Procedure: This method was previously reported and is divided into two well-defined steps: IP3 accumulation: culture medium was discharged, and cells were washed twice with DMEM containing 20 mM HEPES, pH 7.4. After 20 min at 37 °C, different ligands were added to cells for 10 min at 37 °C to analyse their effect on PLC activity in a final reaction volume of 300 μL. The enzymatic reaction was stopped and cells lysed by adding 50 μL 2.8 M perchloric acid and placing plates on ice for 30 min. The medium was neutralized with 70 μ[…] Tris-HCl, 2 M KOH, and 60 mM EGTA, transferred to Eppendorf tubes and centrifuged at 12,000× g for 10 min. The supernatant was then collected to determine the IP3 level. IP3 level determination: IP3 levels in cells were determined as previously reported by Palmer and modified by […] [100]. Incubation of [^3H]IP3 (0.2 pmol; 3000-5000 cpm) in assay buffer (100 mM Tris-HCl, 4 mM EDTA, 4 mM EGTA, 4 mg/mL BSA, pH 9.0), binding protein (500-600 μg), and 25-50 μL of supernatant obtained from IP3 accumulation assay was carried out. Samples were incubated at 4 °C for 60 min and centrifuged at 12,000× g for 10 min. Pellets were suspended in 100 μL 0.2% SDS and transferred to scintillation vials to measure radioactivity. A standard curve was made with known [^3H]IP3 concentrations (0.25-10 μM). Nonspecific binding was determined in the presence of 10 μM unlabeled IP3. Binding protein was obtained from bovine suprarenal capsules according to Palmer's protocol.
# rat cortical neurons = test: MTT reduction cell viability assay after Aβ exposure; format: cell-based; conditions: 25 µM, 24 h, MTT, positive control
# Procedure: as §1, §2
Molecule,effect on Aβ25-35 induced toxicity [1],also measured
"CCNC(=O)[C@H]1O[C@@H](n2cnc3c(N)nc(NCCc4ccc(CCC(=O)O)cc4)nc32)[C@H](O)[C@@H]1O [CGS21680, 2-[p-(2-carboxyethyl)phenylamino]-50-N-ethylcarboxyamide adenosine]",no significant effect,
"OC[C@H]1O[C@@H](n2cnc3c(NC4CCCC4)ncnc32)[C@H](O)[C@@H]1O [CPA, N^6-cyclopentyladenosine]",no significant effect,
"N[C@H](C(=O)O)c1cc(O)cc(O)c1 [DHPG, (S)-3,5-dihydroxyphenylglycine]",no significant effect,
"CCCn1c(=O)c2[nH]c(C3CCCC3)nc2n(CCC)c1=O [DPCPX, 8-Cyclopentyl-1,3-dipropylxanthine]",no significant effect; also recorded: ineffective,
"CO[C@H]1CC[C@@H](C(=O)c2ccc3nc4c(cc3c2)CCCO4)CC1 [JNJ 16259685, (3,4-Dihydro-2H-pyrano[2,3-b]quinolin-7-yl)-(cis-4-methoxycyclohexyl)-methanone]",,effect on DHPG-elicited PLC stimulation ([2]; 0.5 µM): blocked DHPG-elicited PLC stimulation
"Cc1cccc(C#Cc2ccccc2)n1.Cl [MPEP, 2-Methyl-6-(phenylethynyl)pyridine hydrochloride]",,effect on DHPG-elicited PLC stimulation ([2]; 1 µM): blocked DHPG-elicited PLC stimulation
"Nc1nc(NCCc2ccc(O)cc2)nc2nc(-c3ccco3)nn12 [ZM241385, 4-(2-[7-Amino-2-(2-furyl) [1,2,4]triazolo [2,3-a] [1,3,5]triazin-5-ylamino]ethyl)phenol]",no significant effect,
"Aβ1-42: whole amyloid β peptide, kept 24 h at 37 °C to promote aggregation; positive control",,cell viability (rat cortical neurons): decrease in cell viability
